Values of other authors as cited in US20230159622A1, “COLLAGEN MIMICS” (Wisconsin Alumni Research Foundation, priority 2006, published 2023).
Marks after values point to notes of the source that are not given here.

Settings: based on the extrapolation of data from solutions containing trimethylamine N-oxide; literature reference

Substance: (Pro-Pro-Gly)7
- Tm (±1° C.) of triple helix, based on extrapolation: −6^a ° C.
